This is an account of results in patent publication US11046658B2, “Aminopyrazine derivatives as PI3K-γ inhibitors” (Incyte Corporation, priority 2018, dated 2021).

Counter-ions that a name gives are not always drawn. Like-named read-outs stand apart in the source and are kept apart here.

Assay [1] addresses PI3Kδ (p110δ/p85α) Recombinant Human Protein (Homo sapiens (Human), UniProt O00329). Put plainly: PI3Kδ Scintillation Proximity Assay. Type of assay: biochemical. To be noted: 2 μM ATP, 20 μM PIP2. The text has this: Materials: [γ-^33P]ATP (10 mCi/mL) and Wheat Germ Agglutinin (WGA) YSi SPA Scintillation Beads was purchased from Perkin Elmer (Waltham, Mass.). Lipid kinase substrate, D-myo-Phosphatidylinositol 4,5-bisphosphate (PtdIns(4,5)P2)D (+)-sn-1,2-di-O-octanoylglyceryl, 3-O-phospho linked (PIP2), CAS 204858-53-7, was purchased from Echelon Biosciences (Salt Lake City, Utah). PI3Kδ (p110δ/p85α) Recombinant Human Protein was purchased from Eurofins (St Charles, Mo.). ATP, MgCl2, DTT, EDTA, MOPS and CHAPS were purchased from Sigma Aldrich (St. Louis, Mo.).
The kinase reaction was conducted in polystyrene 384-well Greiner Bio-one white plate from Thermo Fisher Scientific in a final volume of 25 μL. Inhibitors were first diluted serially in DMSO and added to the plate wells before the addition of other reaction components. The final concentration of DMSO in the assay was 2%. The PI3Kδ assay was carried out at room temperature in 20 mM MOPS, pH 6.7, 10 mM MgCl2, 5 mM DTT and CHAPS 0.03%. Reactions were initiated by the addition of ATP, the final reaction mixture consisted of 20 μM PIP2, 2 μM ATP, 0.5 μCi [γ-^33P] ATP, 3.4 nM PI3Kδ. Reactions were incubated for 120 min and terminated by the addition of 40 μL SPA beads suspended in quench buffer: 163 mM potassium phosphate pH 7.8, 20% glycerol, 25 mM EDTA. The final concentration of SPA beads is 1.0 mg/mL. After the plate sealing, plates were shaken overnight at room temperature and centrifuged at 1500 rpm for 10 min, the radioactivity of the product was determined by scintillation counting on Topcount (PerkinElmer). IC50 determination was performed by fitting the curve of percent of the solvent control activity versus the log of the inhibitor concentration using the GraphPad Prism 6.0 software.
On the technique in general: SPA uses beads or plates that emit light when radiolabelled molecules are held near them.

Assay [2] relates to Phosphorylated Ribosomal Protein S6 (RPS6) in THP-1 cells. Put plainly: THP-1 RPS6 ELISA Assay. Type of assay: cell-based, Human. Conditions: Homo sapiens, THP-1 cells, 10 nM MCP-1, read-out: PI3Kγ_THP1_RPS6_ELISA IC50. A digest of the protocol:
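Cells serum-starved overnight, pre-incubated with compounds 2 h at 37° C, then stimulated with 10 nM MCP-1 for 15 min. Lysates assayed for phospho-RPS6 by ELISA read at 450 nm. IC50 from percent inhibition vs log concentration curve fit.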
Background: In an ELISA, binding on a coated surface is turned into a signal by an enzyme label.

Sequence of PI3Kδ (p110δ/p85α) Recombinant Human Protein (O00329 whole entry): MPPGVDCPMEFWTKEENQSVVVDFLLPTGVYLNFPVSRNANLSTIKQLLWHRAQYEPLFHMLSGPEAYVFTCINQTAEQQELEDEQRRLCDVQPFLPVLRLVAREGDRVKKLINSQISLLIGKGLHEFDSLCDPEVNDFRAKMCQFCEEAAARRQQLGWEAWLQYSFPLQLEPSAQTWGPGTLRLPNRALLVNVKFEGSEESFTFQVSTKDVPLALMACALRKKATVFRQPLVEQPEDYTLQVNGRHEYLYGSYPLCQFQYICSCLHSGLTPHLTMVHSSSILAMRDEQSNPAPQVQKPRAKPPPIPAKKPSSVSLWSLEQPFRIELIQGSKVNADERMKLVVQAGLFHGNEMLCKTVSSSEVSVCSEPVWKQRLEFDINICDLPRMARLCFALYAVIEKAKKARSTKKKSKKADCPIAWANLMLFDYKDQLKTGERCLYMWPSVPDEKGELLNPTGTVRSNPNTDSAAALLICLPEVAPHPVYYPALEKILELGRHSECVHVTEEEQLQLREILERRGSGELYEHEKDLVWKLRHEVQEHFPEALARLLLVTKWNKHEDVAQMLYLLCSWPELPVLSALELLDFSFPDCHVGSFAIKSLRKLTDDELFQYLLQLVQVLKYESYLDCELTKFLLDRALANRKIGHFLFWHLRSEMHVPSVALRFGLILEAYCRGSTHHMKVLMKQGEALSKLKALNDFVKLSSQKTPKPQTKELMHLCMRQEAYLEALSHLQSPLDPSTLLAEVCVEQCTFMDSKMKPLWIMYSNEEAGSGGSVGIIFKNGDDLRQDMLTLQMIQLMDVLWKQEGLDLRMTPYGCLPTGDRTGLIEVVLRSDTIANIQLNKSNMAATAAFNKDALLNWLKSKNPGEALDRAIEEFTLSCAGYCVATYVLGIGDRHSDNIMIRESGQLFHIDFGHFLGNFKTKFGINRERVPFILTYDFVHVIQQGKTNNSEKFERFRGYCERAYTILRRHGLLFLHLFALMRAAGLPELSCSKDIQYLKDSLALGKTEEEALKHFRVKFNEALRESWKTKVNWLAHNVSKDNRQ
Sequence of PI3Kδ (p110δ/p85α) Recombinant Human Protein (P27986 whole entry partner): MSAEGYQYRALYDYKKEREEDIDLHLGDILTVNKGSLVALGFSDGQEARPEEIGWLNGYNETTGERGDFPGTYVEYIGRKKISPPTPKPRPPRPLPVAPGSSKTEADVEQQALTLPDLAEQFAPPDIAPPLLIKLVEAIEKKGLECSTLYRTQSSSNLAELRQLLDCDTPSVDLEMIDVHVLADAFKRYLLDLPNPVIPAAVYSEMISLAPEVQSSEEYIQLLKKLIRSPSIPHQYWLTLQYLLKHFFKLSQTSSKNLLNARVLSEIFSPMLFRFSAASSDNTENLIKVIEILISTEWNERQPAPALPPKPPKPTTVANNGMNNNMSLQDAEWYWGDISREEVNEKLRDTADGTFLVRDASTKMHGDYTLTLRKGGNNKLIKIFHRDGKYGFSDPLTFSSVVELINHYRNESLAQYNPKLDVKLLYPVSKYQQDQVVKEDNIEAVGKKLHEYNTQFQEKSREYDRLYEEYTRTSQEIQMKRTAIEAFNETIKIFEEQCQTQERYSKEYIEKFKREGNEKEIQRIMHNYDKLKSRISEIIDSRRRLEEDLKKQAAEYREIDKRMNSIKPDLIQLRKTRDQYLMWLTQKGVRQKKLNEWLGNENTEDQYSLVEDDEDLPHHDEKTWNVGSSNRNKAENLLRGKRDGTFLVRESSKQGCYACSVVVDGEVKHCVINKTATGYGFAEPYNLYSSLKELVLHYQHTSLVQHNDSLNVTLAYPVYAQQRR

By IC50 is commonly meant the concentration needed to halve the response being measured. Consider `Cc1ccc(C(O)(C(N)=O)C(F)(F)F)cc1-c1cnc(N)c(N2CCN(C3CC3)C(=O)C2)n1` (centres unmarked) [Example 112, 2-(3-(5-amino-6-(4-cyclopropyl-3-oxopiperazin-1-yl)pyrazin-2-yl)-4-methylphenyl)-3,3,3-trifluoro-2-hydroxypropanamide trifluoroacetate], for which the IC50 in assay [1] (Table A4) and in assay [2] (Table A4) was less than 500 nM each time.
As for `CCOc1ccccc1N1CCN(c2nc(-c3cc(C(O)(C(N)=O)C(F)(F)F)ccc3C)cnc2N)CC1` (centres unmarked) [Example 129, 2-(3-(5-amino-6-(4-(2-ethoxyphenyl)piperazin-1-yl)pyrazin-2-yl)-4-methylphenyl)-3,3,3-trifluoro-2-hydroxypropanamide trifluoroacetate], the results for the IC50 in assay [1] (Table A4) and in assay [2] (Table A4) were less than 500 nM and less than 1000 nM, respectively.
Take `Cc1ccc(C(O)(C(N)=O)C(F)(F)F)cc1-c1cnc(N)c(N2CCN(c3ccccc3)CC2)n1` (centres unmarked) [Example 116, 2-(3-(5-amino-6-(4-phenylpiperazin-1-yl)pyrazin-2-yl)-4-methylphenyl)-3,3,3-trifluoro-2-hydroxypropanamide trifluoroacetate]: the IC50 was less than 500 nM in assay [1] (Table A4) and less than 100 nM in assay [2] (Table A4, cells given with + symbol).
Turning to `Cc1ccc(C(O)(CNC(=O)C(C)(C)O)C(F)(F)F)cc1-c1cnc(N)c(C(=O)NC(C)C)n1` (centres unmarked) [Example 41, 3-Amino-N-isopropyl-6-(2-methyl-5-(1,1,1-trifluoro-2-hydroxy-3-(2-hydroxy-2-methylpropanamido)propan-2-yl)phenyl)pyrazine-2-carboxamide trifluoroacetate], the IC50 in assay [1] (Table A1) is less than 500 nM; in assay [2] (Table A1), more than 1000 nM.
For `Cc1ccc(C(O)(CNC=O)C(F)(F)F)cc1-c1cnc(N)c(-c2cn[nH]c2)n1` (centres unmarked) [Example 103, N-(2-(3-(5-amino-6-(1H-pyrazol-4-yl)pyrazin-2-yl)-4-methylphenyl)-3,3,3-trifluoro-2-hydroxypropyl)formamide trifluoroacetate], the IC50 in assay [1] (Table A3) and in assay [2] (Table A3) was less than 500 nM throughout.
For the molecule `Cc1ccc(C(O)(C(N)=O)C(F)(F)F)cc1-c1cnc(N)c(N2CCN(C(C)(C)C)C(=O)C2)n1` (centres unmarked) [Example 113, 2-(3-(5-amino-6-(4-tert-butyl-3-oxopiperazin-1-yl)pyrazin-2-yl)-4-methylphenyl)-3,3,3-trifluoro-2-hydroxypropanamide trifluoroacetate], the IC50 in assay [1] (Table A4) and in assay [2] (Table A4) was less than 500 nM throughout.
As for `Cc1ccc(C(O)(C(N)=O)C(F)(F)F)cc1-c1cnc(N)c(N2CCN(c3cccc(C(F)(F)F)c3)CC2)n1` (centres unmarked) [Example 121, 2-(3-(5-amino-6-(4-(3-(trifluoromethyl)phenyl)piperazin-1-yl)pyrazin-2-yl)-4-methylphenyl)-3,3,3-trifluoro-2-hydroxypropanamide trifluoroacetate], the results for the IC50 in assay [1] (Table A4) and in assay [2] (Table A4) were less than 500 nM and more than 1000 nM, respectively.
Consider `CCCc1nc(-c2cc(C(O)(C(N)=O)C(F)(F)F)ccc2C)cnc1N` (centres unmarked) [Example 45, 2-(3-(5-amino-6-propylpyrazin-2-yl)-4-methylphenyl)-3,3,3-trifluoro-2-hydroxypropanamide], for which the IC50 in assay [1] (Table A2) and in assay [2] (Table A2) was less than 500 nM in each case.
As for `Cc1ccc(C(O)(C(N)=O)C(F)(F)F)cc1-c1cnc(N)c(N2CC(=O)N(c3ccc(O)cc3)[C@@H](CO)C2)n1` (stereo partly drawn) [Example 124, 2-(3-(5-amino-6-((R)-3-(hydroxymethyl)-4-(4-hydroxyphenyl)-5-oxopiperazin-1-yl)pyrazin-2-yl)-4-methylphenyl)-3,3,3-trifluoro-2-hydroxypropanamide trifluoroacetate], the IC50 in assay [1] (Table A4) was less than 500 nM; in assay [2] (Table A4) it was less than 1000 nM.
As to `Cc1ccc(C(O)(C(N)=O)C(F)(F)F)cc1-c1cnc(N)c(-c2cccc(C(C)C)c2)n1` (centres unmarked) [Example 90, 2-(3-(5-amino-6-(3-isopropylphenyl)pyrazin-2-yl)-4-methylphenyl)-3,3,3-trifluoro-2-hydroxypropanamide trifluoroacetate], the IC50 in assay [1] (Table A3) and in assay [2] (Table A3) was less than 500 nM in each case.
